According to the supplement of paper PMC9938120:

Tested on: FMOC25_1 (patient-derived low-grade serous ovarian cancer cells)
Assay: drug sensitivity score (DSS3, normalised partial AUC of % inhibition dose-response) (DSS (score)); higher = more sensitive (stronger inhibition of viability); extreme values may be limits of the assay
Conditions: 72 h; library: FO4B; assay format: 2D, 384-well, CellTiter-Glo
Method in brief: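 Patient-derived ovarian cancer cells (early passage, under 10) were dispensed onto 384-well flat clear-bottom plates pre-plated with compounds at five concentrations covering a 10,000-fold range. Plates were incubated 72 h at 37 °C, 5% CO2, and viability was read with CellTiter-Glo. Data were processed in Breeze. The drug sensitivity score (DSS3) is a partial area under the percent-inhibition dose-response curve, divided by the log of the upper asymptote; higher means more sensitive.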

| SMILES | drug sensitivity score |
| --- | --- |
| Cc1csc(-c2nnc(Nc3ccc(Oc4ncccc4-c4ccnc(N)n4)cc3)c3ccccc23)c1 [AMG-900] | 0.8 |
| Cc1cc(C)c(/C=C2\C(=O)Nc3ccccc32)[nH]1 [Semaxanib] | 4.4 |
| Cn1c(Nc2ccc(C(F)(F)F)cc2)nc2cc(Oc3ccnc(-c4ncc(C(F)(F)F)[nH]4)c3)ccc21 [RAF265] | 8.1 |
| CS(=O)(=O)c1ccc(C2=C(c3ccccc3)C(=O)OC2)cc1 [Rofecoxib] | 0 |
| COc1ccc(C2=N[C@@H](c3ccc(Cl)cc3)[C@@H](c3ccc(Cl)cc3)N2C(=O)N2CCNC(=O)C2)c(OC(C)C)c1 [Nutlin-3] | 3.5 |
| OCCn1cc(-c2cnc3nnn(Cc4ccc5ncccc5c4)c3n2)cn1 | 0 |
| O=c1ncn2nc(Sc3ccc(F)cc3F)ccc2c1-c1c(Cl)cccc1Cl [VX 745] | 0 |
| CNNCc1ccc(C(=O)NC(C)C)cc1 [Procarbazine] | 0 |
| O=C(Nc1ccc(-c2ccnc(Nc3ccc(N4CCOCC4)cc3)n2)cc1)C1CCCN1 (centres undefined) [XL019] | 0.5 |
| O=C(Nc1cccc(Cl)c1)Nc1ncc(CCNc2ncnc3ccsc23)s1 [SNS-314] | 0.4 |
| Oc1c2ccccc2c2c3c(cccc13)N=N2 | 4.3 |
| Oc1ncc(N(CCCl)CCCl)c(O)n1 [Uramustine] | 0.1 |
| Cc1c(CN2CCN(C(=O)[C@H](C)O)CC2)sc2c(N3CCOCC3)nc(-c3cnc(N)nc3)nc12 [Apitolisib] | 18.1 |
| CCc1c2c(nc3ccc(OC(=O)N4CCC(N5CCCCC5)CC4)cc13)-c1cc3c(c(=O)n1C2)COC(=O)[C@]3(O)CC [Irinotecan] | 5.1 |
| N[C@@H](Cc1ccc(N(CCCl)CCCl)cc1)C(=O)O [Melphalan] | 0 |
| COc1cc2c(Nc3ccc(Cl)c(Cl)c3F)ncnc2cc1OC[C@@H]1C[C@@H]2CN(C)C[C@@H]2C1 [XL-647] | 9.1 |
| O=C(Cc1ccc(-c2ccc(OCCN3CCOCC3)cc2)cn1)NCc1ccccc1 [KX2-391] | 12.7 |
| CNC(=O)c1ccc(N2C(=S)N(c3cnc(C#N)c(C(F)(F)F)c3)C(=O)C23CCC3)cc1F [ARN 509] | 0 |
| CC[C@@]1(O)C(=O)OCc2c1cc1n(c2=O)Cc2cc3ccccc3nc2-1 [Camptothecin] | 17 |
| COc1cccc2cc(-c3nc([C@H]4CC[C@H](C(=O)O)CC4)n4ncnc(N)c34)[nH]c12 [OSI-027] | 8.2 |
| O=C(CCBr)N1CCN(C(=O)CCBr)CC1 [Pipobroman] | 1.6 |
| COCC(=O)NC/C=C/c1ccc2ncnc(Nc3ccc(Oc4ccc(C)nc4)c(C)c3)c2c1 | 3.2 |
| CC(C)NC(=O)COc1cccc(-c2nc(Nc3ccc4[nH]ncc4c3)c3ccccc3n2)c1 [SLx-2119] | 2.7 |
| COc1cc(O)c2c(c1)/C=C/C[C@H](O)[C@H](O)C(=O)/C=C\C[C@H](C)OC2=O [(5Z)-7-Oxozeaenol] | 0 |
| CN1CCC(COc2cnc(-c3cccc(Cn4nc(-c5cccc(C#N)c5)ccc4=O)c3)nc2)CC1 | 0 |
| c1ccc([C@H]2CN3CCSC3=N2)cc1 [Levamisole] | 0 |
| Cc1[nH]c(/C=C2\C(=O)Nc3ccccc32)c(C)c1CCC(=O)O [Orantinib] | 2.6 |

| SMILES | drug sensitivity score |
| --- | --- |
| CNC(=O)c1ccc(N2C(=S)N(c3ccc(C#N)c(C(F)(F)F)c3)C(=O)C23CCC3)cc1F [RD162] | 0 |
| CN[C@@H](C)C(=O)N[C@H](C(=O)N1CCC[C@H]1c1nc(C(=O)c2ccc(F)cc2)cs1)C1CCCCC1 [LCL161] | 7.7 |
| COc1ccc2c(OCc3nnc4ccc(-c5ccccc5)nn34)ccnc2c1 [AMG-208] | 1.3 |
| Cc1ccc2nc(CN(CCN(Cc3nc4ccc(C)cc4[nH]3)Cc3nc4ccc(C)cc4[nH]3)Cc3nc4ccc(C)cc4[nH]3)[nH]c2c1 | 3.9 |
| C[C@@H]1C[C@H]2O[C@@H]2/C=C\C=C\C(=O)Cc2c(Cl)c(O)cc(O)c2C(=O)O1 [Radicicol] | 3.2 |
| O=C(Nc1cccc(C(F)(F)F)c1)Nc1cc(S(=O)(=O)NC2CC2)ccc1-c1ccsc1 [AGI-6780] | 0.4 |
| Cn1cc(-c2ccc3nnc(C(F)(F)c4ccc5ncccc5c4)n3n2)cn1 | 0 |
| CC(C)Oc1cc(Nc2nc(N[C@@H](C)c3ccc(F)cn3)ncc2Cl)n[nH]1 [AZ-23] | 0 |
| O=c1cc(N2CCOCC2)oc2c(-c3ccccc3)cccc12 | 9.1 |
| C[C@]12CC[C@@H]3c4ccc(OC(=O)N(CCCl)CCCl)cc4CC[C@H]3[C@@H]1CC[C@@H]2O [Estramustine] | 0 |
| c1ccc2c(CCNc3ccc(Nc4ccncc4)cc3)c[nH]c2c1 [Serdemetan] | 3.4 |
| O=C(Nc1ccc(OC(F)(F)F)cc1)c1sccc1NCc1ccnc2ccccc12 [OSI-930] | 0 |
| CN(C)/N=N/c1[nH]cnc1C(N)=O [Dacarbazine] | 0 |
| C/C(=C\c1csc(C)n1)[C@@H]1C[C@@H]2O[C@]2(C)CCC[C@H](C)[C@H](O)[C@@H](C)C(=O)C(C)(C)[C@@H](O)CC(=O)O1 [Patupilone] | 9.3 |
| CNC(=O)c1ccc(-c2cnc3ncc(Cc4ccc5ncccc5c4)n3n2)cc1F [NVP-INC280] | 0 |
| CCn1nnc2c(N3CCOCC3)nc(-c3ccc(NC(=O)Nc4ccc(C(=O)N5CCN(C)CC5)cc4)cc3)nc21 [PKI-402] | 19.1 |
| O=C(NOCC1CC1)c1ccc(F)c(F)c1Nc1ccc(I)cc1Cl | 7.5 |
| CS(=O)(=O)N1CCc2c(-c3cnc(N)nc3)nc(N3CCOCC3)nc21 | 10.5 |
| CC(=O)NCC(=O)N1[C@@H]2CC[C@H]1c1ccc(Nc3ncc(C(F)(F)F)c(NC4CCC4)n3)cc12 | 9.1 |
| CN(C)CCN1C(=O)c2cccc3cc(N)cc(c23)C1=O [Amonafide] | 6.8 |
| O=[N+]([O-])c1ccc2c(c1)S(=O)(=O)C=C2 [Stattic] | 6.3 |
| CNC(=O)c1cccc(-c2ccc3c(N4CCOC[C@@H]4C)nc(N4CCOC[C@@H]4C)nc3n2)c1 [AZD2014] | 20.5 |
| Cc1cc(C(=O)NOCCO)c(Nc2ccc(I)cc2F)n(C)c1=O [AZD-8330] | 22.2 |
| O=S(=O)(c1cccc2cnccc12)N1CCCNCC1 [Fasudil] | 0 |
| CS(=O)(=O)OCCCCOS(C)(=O)=O [Busulfan] | 0 |
| CCc1nc(-c2cccc(C)c2)c(-c2ccnc(NC(=O)c3ccccc3)c2)s1 [TAK-715] | 0 |
| Cc1sc2c(c1C)C(c1ccc(Cl)cc1)=N[C@@H](CC(=O)Nc1ccc(O)cc1)c1nnc(C)n1-2 [OTX015] | 6.3 |
